Key:
[1] = test system: DU145 (Prostate Cancer) cells; test: Cellular growth assay (MTT), DU145; format: cell-based; conditions: Homo sapiens, DU-145, 40 hr incubation, read-out: DU145 (inhibition of 50% of cellular growth)
Description: (§1) K562 (Chronic Myeloid Leukemia), PC3 (Prostate Cancer), and DU145 (Prostate Cancer) were obtained from the American Type Culture Collection (ATCC). K562 was grown in RPMI, with 10% FBS with Glutamx added. DU145 cells were cultured in DMED, with 10% FBS and Glutamx and MEM non-essential amino acids added. PC3 cells were grown in F12K medium, with 10% FBS and Glutamx and MEM non-essential amino acids added. All cells were grown at 37° C. in 5% CO2.

[2] = test system: PC3 (Prostate Cancer) cells; test: Cellular growth assay (MTT), PC3; format: cell-based; conditions: Homo sapiens, PC-3, 40 hr incubation, read-out: PC3 (inhibition of 50% of cellular growth)
Description: as §1

[3] = test system: K562 (Chronic Myeloid Leukemia) cells; test: Cellular growth assay (MTT), K562; format: cell-based; conditions: Homo sapiens, 40 hr incubation, read-out: K562 (inhibition of 50% of cellular growth)
Description: as §1

TelJak2 = TelJak2 (Homo sapiens, UniProt O60674); test: Cellular growth assay (MTT), BaF3 TEL/JAK2 cells; format: cell-based; conditions: 40 hr incubation, read-out: TelJak2 (inhibition of 50% of cellular growth)
TelJak2, sequence (O60674 with tags, fused parts or gaps): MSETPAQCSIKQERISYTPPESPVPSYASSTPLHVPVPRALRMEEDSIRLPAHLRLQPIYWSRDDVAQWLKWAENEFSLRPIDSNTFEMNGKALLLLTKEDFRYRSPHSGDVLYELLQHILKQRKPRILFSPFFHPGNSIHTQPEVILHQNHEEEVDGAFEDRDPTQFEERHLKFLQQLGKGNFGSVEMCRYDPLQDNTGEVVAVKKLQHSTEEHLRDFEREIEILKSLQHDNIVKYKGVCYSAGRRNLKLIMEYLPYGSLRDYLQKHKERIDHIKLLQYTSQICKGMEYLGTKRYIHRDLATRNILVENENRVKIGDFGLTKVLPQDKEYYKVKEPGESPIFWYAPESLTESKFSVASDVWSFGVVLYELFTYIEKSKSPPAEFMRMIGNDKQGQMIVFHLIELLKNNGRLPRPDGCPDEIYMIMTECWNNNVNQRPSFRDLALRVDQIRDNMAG

TelJak3 = TelJak3 (Homo sapiens, UniProt P52333); test: Cellular growth assay (MTT), BaF3 TEL/JAK3 cells; format: cell-based; conditions: 40 hr incubation, read-out: TelJak3 (inhibition of 50% of cellular growth)
TelJak3, sequence (P52333 with tags, fused parts or gaps): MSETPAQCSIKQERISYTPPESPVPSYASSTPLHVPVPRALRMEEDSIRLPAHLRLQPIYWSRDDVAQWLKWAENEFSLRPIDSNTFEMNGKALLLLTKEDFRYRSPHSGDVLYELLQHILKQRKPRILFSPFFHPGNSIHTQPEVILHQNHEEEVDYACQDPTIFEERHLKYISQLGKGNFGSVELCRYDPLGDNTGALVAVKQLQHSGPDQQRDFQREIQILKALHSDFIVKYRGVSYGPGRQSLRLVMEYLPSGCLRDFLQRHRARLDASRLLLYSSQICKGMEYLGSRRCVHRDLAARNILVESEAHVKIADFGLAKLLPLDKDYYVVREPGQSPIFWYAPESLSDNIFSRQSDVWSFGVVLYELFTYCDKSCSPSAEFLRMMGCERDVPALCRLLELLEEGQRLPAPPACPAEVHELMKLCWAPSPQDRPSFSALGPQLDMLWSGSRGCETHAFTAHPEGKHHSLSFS

Tubulin = Tubulin assay (turbidometric microtubule assembly); format: biochemical; conditions: at 50 μM, absorbance at 340 nm, 37° C.
Description: Turbidometric assays of microtubule assembly were performed by incubating microtubule protein in cuvettes at 37° C. in a thermostatically controlled spectrophotometer measuring the change in absorbance at 340 nm over time. The microtubule protein was incubated with the each test compound at 0° C. and polymerisation was initiated by addition of 1 mM GTP, prior to heating to 37° C.

Compound	IC50 [1]	IC50 [2]	IC50 [3]	IC50 (TelJak2)	IC50 (TelJak3)	Tubulin (inhibition of tubulin polymerisation) (Tubulin)
CCCC(Nc1cncc(-c2ccc(O)c(OC)c2)n1)c1ccc(Cl)cc1 (stereo not drawn)	≤ 20 µM	≤ 20 µM	≤ 20 µM	≤ 20 µM	≤ 20 µM	+ (inhibited tubulin polymerisation by greater than 50% at 50 μM)
CCCC(Nc1cncc(-c2ccc(O)c(OC)c2)n1)c1ccc(C)cc1 (stereo not drawn)	≤ 20 µM	≤ 20 µM	≤ 20 µM	≤ 20 µM	≤ 20 µM	+ (inhibited tubulin polymerisation by greater than 50% at 50 μM)
CCCC(Nc1cncc(-c2ccc(O)c(OC)c2)n1)c1ccc(OC)cc1 (stereo not drawn)	≤ 20 µM	≤ 20 µM	≤ 20 µM	≤ 20 µM	≤ 20 µM	+ (inhibited tubulin polymerisation by greater than 50% at 50 μM)
CCCC(Nc1cncc(-c2ccc(O)c(OC)c2)n1)c1cccc(Cl)c1 (stereo not drawn)	≤ 20 µM	≤ 20 µM	≤ 20 µM	≤ 20 µM	≤ 20 µM	+ (inhibited tubulin polymerisation by greater than 50% at 50 μM)
CCCC(Nc1cncc(-c2ccc(O)c(OC)c2)n1)c1cccc(C(=O)OC)c1 (stereo not drawn)	≤ 20 µM	≤ 20 µM	≤ 20 µM	≤ 20 µM	≤ 20 µM	+ (inhibited tubulin polymerisation by greater than 50% at 50 μM)
CCCC(Nc1cncc(-c2ccc(O)c(OC)c2)n1)c1cccc(NC(=O)c2cccnc2)c1 (stereo not drawn)	≤ 20 µM	≤ 20 µM	≤ 20 µM	≤ 20 µM	≤ 20 µM	+ (inhibited tubulin polymerisation by greater than 50% at 50 μM)
CCCC(Nc1cncc(-c2ccc(O)c(OC)c2)n1)c1cc(F)cc(F)c1 (stereo not drawn)	> 20 µM	> 20 µM	≤ 20 µM	≤ 20 µM	≤ 20 µM	+ (inhibited tubulin polymerisation by greater than 50% at 50 μM)
CCCC(Nc1cncc(-c2ccc(O)c(OC)c2)n1)c1cncc(C)c1 (stereo not drawn)	> 20 µM	≤ 20 µM	≤ 20 µM	≤ 20 µM	≤ 20 µM	+ (inhibited tubulin polymerisation by greater than 50% at 50 μM)
CCC[C@H](Nc1cncc(-c2ccc(N)c(OC)c2)n1)c1ccccc1	≤ 20 µM	≤ 20 µM	≤ 20 µM	≤ 20 µM	≤ 20 µM	+ (inhibited tubulin polymerisation by greater than 50% at 50 μM)
CCCC(Nc1cncc(-c2ccc(N)c(OC)c2)n1)c1cccnc1 (stereo not drawn)	≤ 20 µM	≤ 20 µM	≤ 20 µM	≤ 20 µM	≤ 20 µM	+ (inhibited tubulin polymerisation by greater than 50% at 50 μM)
CCCC(Nc1cncc(-c2ccc(O)c(OC(C)C)c2)n1)c1cccnc1 (stereo not drawn)	≤ 20 µM	≤ 20 µM	≤ 20 µM	≤ 20 µM	≤ 20 µM	+ (inhibited tubulin polymerisation by greater than 50% at 50 μM)
COCCC(Nc1cncc(-c2ccc(O)c(OC)c2)n1)c1ccccc1 (stereo not drawn)	≤ 20 µM	≤ 20 µM	≤ 20 µM	≤ 20 µM	≤ 20 µM	+ (inhibited tubulin polymerisation by greater than 50% at 50 μM)
CCCC(Nc1cnc(C)c(-c2ccc(N)c(OC)c2)n1)c1ccccc1 (stereo not drawn)	≤ 20 µM	≤ 20 µM	≤ 20 µM	≤ 20 µM	≤ 20 µM	+ (inhibited tubulin polymerisation by greater than 50% at 50 μM)
CCCC(Nc1nc(-c2ccc(N)c(OC)c2)cnc1C)c1ccccc1 (stereo not drawn)	≤ 20 µM	≤ 20 µM	≤ 20 µM	≤ 20 µM	≤ 20 µM	+ (inhibited tubulin polymerisation by greater than 50% at 50 μM)
